Experiments:
[1] = tested on: Streptococcus dysgalactiae subsp. equisimilis; assay: Antibacterial activity against gyrA01, parC14 allele containing Streptococcus dysgalactiae subsp. equisimilis with ParC N91D mutant by CLSI […] method; type: functional
[2] = tested on: Streptococcus dysgalactiae subsp. equisimilis; assay: Antibacterial activity against gyrA04, parC15 allele containing Streptococcus dysgalactiae subsp. equisimilis with GyrA S81F, S79F/ParC N91D mutant by CLSI […] method; type: functional
[3] = tested on: Streptococcus dysgalactiae subsp. equisimilis; assay: Antibacterial activity against gyrA03, parC06 allele containing Streptococcus dysgalactiae subsp. equisimilis with GyrA E85K, S79Y mutant by CLSI […] method; type: functional
[4] = tested on: Streptococcus dysgalactiae subsp. equisimilis; assay: Antibacterial activity against gyrA04, parC09 allele containing Streptococcus dysgalactiae subsp. equisimilis with GyrA S81F/ParC D83N mutant by CLSI […] method; type: functional
[5] = tested on: Streptococcus dysgalactiae subsp. equisimilis; assay: Antibacterial activity against gyrA05, parC05 allele containing Streptococcus dysgalactiae subsp. equisimilis with GyrA D142N mutant by CLSI […] method; type: functional
[6] = tested on: Streptococcus dysgalactiae subsp. equisimilis; assay: Antibacterial activity against gyrA01, parC allele containing Streptococcus dysgalactiae subsp. equisimilis with ParC N91D, P140S mutant by CLSI […] method; type: functional
[7] = tested on: Streptococcus dysgalactiae subsp. equisimilis; assay: Antibacterial activity against gyrA04, parC14 allele containing Streptococcus dysgalactiae subsp. equisimilis with GyrA S81F/ParC N91D mutant by CLSI […] method; type: functional
[8] = tested on: Streptococcus dysgalactiae subsp. equisimilis; assay: Antibacterial activity against gyrA04, parC17 allele containing Streptococcus dysgalactiae subsp. equisimilis with GyrA S81F, S79F/ParC N91D, P140S mutant by CLSI […] method; type: functional
[9] = tested on: Streptococcus dysgalactiae subsp. equisimilis; assay: Antibacterial activity against gyrA01, parC03 allele containing Streptococcus dysgalactiae subsp. equisimilis with GyrA S79P mutant by CLSI […] method; type: functional
[10] = tested on: Streptococcus dysgalactiae subsp. equisimilis; assay: Antibacterial activity against gyrA01, parC04 allele containing Streptococcus dysgalactiae subsp. equisimilis with GyrA S79F mutant by CLSI […] method; type: functional
[11] = tested on: Streptococcus dysgalactiae subsp. equisimilis; assay: Antibacterial activity against gyrA01, parC12 allele containing Streptococcus dysgalactiae subsp. equisimilis with ParC G166E mutant by CLSI […] method; type: functional
[12] = tested on: Streptococcus dysgalactiae subsp. equisimilis; assay: Antibacterial activity against gyrA03, parC08 allele containing Streptococcus dysgalactiae subsp. equisimilis with GyrA E85K, S79F mutant by CLSI […] method; type: functional
[13] = tested on: Streptococcus dysgalactiae subsp. equisimilis; assay: Antibacterial activity against gyrA04, parC allele containing Streptococcus dysgalactiae subsp. equisimilis with GyrA S81F, S79F mutant by CLSI […] method; type: functional
[14] = tested on: Streptococcus dysgalactiae subsp. equisimilis; assay: Antibacterial activity against gyrA02, parC17 allele containing Streptococcus dysgalactiae subsp. equisimilis with GyrA S81Y, S79F/ParC N91D, P140S mutant by CLSI […] method
[15] = tested on: Streptococcus dysgalactiae subsp. equisimilis; assay: Antibacterial activity against gyrA01, parC17 allele containing Streptococcus dysgalactiae subsp. equisimilis with GyrA S79F, S79F/ParC N91D, P140S mutant by CLSI […] method; type: functional
[16] = tested on: Streptococcus dysgalactiae subsp. equisimilis; assay: Antibacterial activity against gyrA01, parC allele containing Streptococcus dysgalactiae subsp. equisimilis by CLSI […] method; type: functional
[17] = tested on: Streptococcus dysgalactiae subsp. equisimilis; assay: Antibacterial activity against gyrA01, parC19 allele containing Streptococcus dysgalactiae subsp. equisimilis with GyrA S79A/ParC N91D, P140S mutant by CLSI […] method; type: functional
[18] = tested on: Streptococcus dysgalactiae subsp. equisimilis; assay: Antibacterial activity against gyrA03, parC10 allele containing Streptococcus dysgalactiae subsp. equisimilis with GyrA E85K/ParC D83G mutant by CLSI […] method; type: functional
[19] = tested on: Streptococcus dysgalactiae subsp. equisimilis; assay: Antibacterial activity against gyrA04, parC13 allele containing Streptococcus dysgalactiae subsp. equisimilis with GyrA S81F, S79A mutant by CLSI […] method; type: functional

C[C@H]1COc2c(N3CCN(C)CC3)c(F)cc3c(=O)c(C(=O)O)cn1c23.C[C@H]1COc2c(N3CCN(C)CC3)c(F)cc3c(=O)c(C(=O)O)cn1c23.O [LEVOFLOXACIN] was tested, and the MIC [1] was 0.5 µg/mL, the MIC [2] was greater than 32 µg/mL and the MIC [3] was greater than 32 µg/mL. The MIC [4] was greater than 8 µg/mL, the MIC [5] was 0.38 µg/mL and the MIC [6] was 0.19 µg/mL. The MIC [7] was 4 µg/mL, the MIC [8] was greater than 32 µg/mL and the MIC [9] was 0.75 µg/mL. The MIC [10] was 3 µg/mL, the MIC [11] was 1 µg/mL and the MIC [12] was greater than 32 µg/mL. It also gave an MIC [13] greater than 32 µg/mL, an MIC [14] greater than 32 µg/mL and an MIC [15] of 1.5 µg/mL. It also gave an MIC [16] of 0.38 µg/mL, an MIC [17] of 2 µg/mL and an MIC [18] of 8 µg/mL. The MIC [19] was 12 µg/mL.
